According to patent US20240033358A1, “COMBINATION THERAPIES WITH CHIMERIC ANTIGEN RECEPTOR (CAR)-EXPRESSING CELLS” (Novartis AG, priority 2020, published 2024):

Assays:
[1] = tested on: adult patients with r/r DLBCL; assay: JULIET phase 2 trial of tisagenlecleucel: efficacy outcomes (BOR, M3 response, DOR, PFS, OS), safety and B-cell recovery, overall and by subgroup (MYC, DH/TH, TME, pre-infusion LDH); type: in vivo, human; conditions: for probability of PFS: MYC(−) patients with normal pre-infusion LDH (n=16); for Survival probability: all infused patients
Excerpt: Methods: JULIET (NCT02445248) was a global, phase 2 trial of autologous anti-CD19 CAR-T cell therapy in adult patients with r/r DLBCL (relapsed or refractory to ≥2 prior lines of therapy). Median follow-up was 40.3 months. The relationship between MYC overexpression, tumor microenvironment (TME) characteristics (including CD3+ T-cell infiltration, myeloid-derived suppressor cells [MDSCs], and LAG3 expression by fluorescent immunohistochemistry [IHC]), activated B-cell/germinal center B-cell [ABC/GCB] subtype, double/triple-hit (DH/TH) status, and gene mutations including TP53 with efficacy outcomes (best overall response [BOR], response at Month 3 [M3], progression-free and overall survival [PFS/OS]) were assessed. Results: 115 patients received autologous anti-CD19 CAR-T cell infusion. Among patients who were in CR at 6 months, 86% were estimated to maintain the response at 36 months. […] Median OS among all 115 infused patients was 11.1 months (95% CI, 6.6-23.9). […] Median OS of patients with CR (n=37) or PR (n=7) at M3 was not reached; 80% of patients with complete response (CR) had OS benefit≥20 months. […] Of the 23 patients with ongoing CR and B-cell count available, 11 had CD19+ B cells recovered back to normal (80 cells/μL) after 1 year, with similar patterns observed for CD20+ and CD22+ B cells (FIG. 21). The 24 month and 42 month PFS was 33% and 31% respectively (FIG. 16).
Of the 111 patients whose baseline tumor biopsies were tested for MYC expression by immunohistochemistry (IHC), 73 patients were positive for MYC expression (MYC(+) defined as >40% of cells expressing MYC, as measured by IHC) and 38 patients were negative for MYC expression (MYC(−) defined as <40% of cells expressing MYC, as measured by IHC). BOR rates for MYC(+) and MYC(−) patients were 44% (95% CI, 32-56) and 63% (95% CI, 46-78), respectively; M3 response rates were 30% (95% CI, 20-42) and 50% (95% CI, 33-67), respectively (Table 6, and FIG. 14). By month 6, 18/38 (47%) MYC(−) patients were CR/PR compared to 18/73 (25%) of MYC(+) patients. DOR was in a plateau phase at 79% starting in MYC(−) patients (n=24) at 6 months. […] Thus, MYC(+) patients tended to have shorter PFS and OS compared with MYC(−) patients and a high-baseline of MYC expression in patients prior to treatment was associated with worse PFS and OS (FIGS. 4A-4C).
Of the 73 MYC(+) patients, 70 of them were also tested for rearrangements in MYC, BCL2, and BCL6 by FISH in order to identify double hit (DH) (MYC/BCL2 or MYC/BCL6) or triple hit (TH) (MYC/BCL2/BCL6) lymphomas. Of the 70 MYC(+) patients, 20 had DH/TH lymphoma and a BOR rate of 40% (95% CI, 19-64). BOR rate for patients that were MYC(+) but non-DH/TH lymphoma was 48% (95% CI, 34-63).
In the TME analysis of baseline biopsy, a low frequency of tumor infiltrating CD3+ T cells (cutoff of ≤3%; n=16) was associated with shorter median DOR, PFS (2.2 months [95% CI, 0.92-2.8] and 4.2 months [95% Cl, 2.6-21], respectively) and OS (7 months [95% CI, 1.8-12] and 21 months [95% CI, 6.7-NE], respectively) compared with patients with ≥3% CD3+ T cells (n=64) (FIGS. 13A-13C). At month 6, only 2/16 (13%) of patients with <3% tumor-infiltrating CD3+ T cells in baseline tumors were responders compared to 23/36 (64%) responders with >3% tumor infiltrating CD3+ T cells. Patients with low or no (≤3%) tumor-infiltrating CD3+ T cells (n=16) in baseline tumor biopsies were enriched with non-responders (FIG. 22).
Patients with the highest frequency of LAG3+CD3+ cells out of the tumor infiltrating CD3+ T cell population (cutoff of >20%; n=12) at baseline were mostly non-responders at Month 3 (FIG. 23) and all 12 patients with >20% LAG3+CD3+ cells (out of the tumor infiltrating CD3+ T cells) were non-responders at Month 6.
The probability of PFS in MYC(−) patients with normal LDH (n=16) was 81% at 6 months and stabilized at 75% starting at 12 months.

[2] = tested on: SuDHL6 cells implanted subcutaneously; assay: In vivo double-hit lymphoma model: tumor volume after CART19 cells and/or BCL2 inhibitor; set-up: species or system NOD scid gamma (NSG) mice; conditions: treatment from day 15 post-implant; venetoclax 100 mg/kg daily; 1e6 CART19 cells; versus PBS vehicle, UTD or CART19 alone
Procedure: NOD scid gamma (NSG) mice were implanted subcutaneously with a dose of 5e6 SuDHL6 cells/mouse. At day 15 post-implant, mice were randomized into treatment groups, which included: PBS vehicle negative control (FIG. 10A); PBS vehicle and 100 mg/kg of the BCL2 inhibitor, venetoclax (FIG. 10A); 1.45e6 untransduced T cells containing no CAR (UTD) (FIG. 10B); 1.45e6 untransduced T cells containing no CAR (UTD) and 100 mg/kg of the BCL2 inhibitor, venetoclax (FIG. 10B); 1e6 CART19 cells (which were at 68% positivity, total cells injected were 1.45e6) (FIG. 10C); and 1e6 CART19 cells and 100 mg/kg of the BCL2 inhibitor, venetoclax (FIG. 10C). The BCL2 inhibitor was administered daily until sacrifice. Tumor growth was monitored in these mice every three days. Tumor volume was quantified by caliper measurement at each timepoint sampled (FIGS. 10A-C).

[3] = LAG3+CD3+ out of CD3+ T cells ≥20% at baseline (n=12)
[4] = MYC(+) DH/TH patients (n = 20), r/r DLBCL, JULIET
[5] = MYC(+) Non-DH/TH patients (n = 50), r/r DLBCL, JULIET
[6] = MYC(−) patients (n = 38), r/r DLBCL, JULIET
[7] = baseline tumor infiltrating CD3+ T cells ≤3% (n=16)
[8] = of patients with a CR at 6 months
[9] = patients with <20% LAG3+CD3+ T cells (n=68)
[10] = patients with ≥3% CD3+ T cells (n=64)

Tisagenlecleucel
PFS ([1]; 24 month): 33% | PFS ([1]; 42 month): 31% | median duration of response (DOR) ([1]; 61 patients with a response, 95% CI, 10-NE): not reached | median OS [1, 3]: 4.3 months | median PFS [1, 3]: 2.1 months | Best Overall Response (BOR), % (95% CI) [1, 4]: 40 (19-64) % | Response at Month 3 (M3), % (95% CI) [1, 4]: 20 (6-44) % | Best Overall Response (BOR), % (95% CI) [1, 5]: 48 (34-63) % | Response at Month 3 (M3), % (95% CI) [1, 5]: 36 (23-51) % | median DOR ([1]; MYC(+) patients): 19 months | median OS ([1]; MYC(+) patients): 7.8 months | median PFS ([1]; MYC(+) patients): 2.5 months | Best Overall Response (BOR), % (95% CI) ([1]; MYC(+) patients (n = 73)): 44 (32-56) % | Response at Month 3 (M3), % (95% CI) ([1]; MYC(+) patients (n = 73)): 30 (20-42) % | BOR rate ([1]; MYC(+) patients with DH/TH lymphoma (n=20)): 40% | patients CR/PR by month 6 ([1]; MYC(+) patients, 18/73): 25% | median DOR ([1]; MYC(−) patients): not reached | median OS ([1]; MYC(−) patients): 21 months | median PFS ([1]; MYC(−) patients): 6.2 months | Best Overall Response (BOR), % (95% CI) ([1]; MYC(−) patients (n = 38)): 63 (46-78) % | Response at Month 3 (M3), % (95% CI) ([1]; MYC(−) patients (n = 38)): 50 (33-67) % | Best Overall Response (BOR), % (95% CI) [1, 6]: 63 (46-78) % | Response at Month 3 (M3), % (95% CI) [1, 6]: 50 (33-67) % | DOR plateau phase ([1]; MYC(−) patients (n=24), starting at 6 months): 79% | probability of PFS ([1]; at 6 months): 81% | probability of PFS ([1]; stabilized starting at 12 months): 75% | patients CR/PR by month 6 ([1]; MYC(−) patients, 18/38): 47% | median OS ([1]; all 115 infused patients): 11.1 months | patients estimated to maintain the response at 36 months ([1]; among patients who were in CR at 6 months): 86% | relapse-free probability ([1]; among the 61 patients with a response, at 24 and 30 months): 60.4% | responses across B-cell lymphoma subsets (MYC positive, MYC negative, DH/TH) ([1]; at 1 month post-treatment): comparable | Survival probability ([1]; at 12 months): 48.2% | Survival probability ([1]; at 24 months): 40.4% | Survival probability ([1]; at 36 months): 36.2% | median OS [1, 7]: 7 months | median PFS [1, 7]: 2.2 months | safety signals ([1]; median follow-up 40.3 months): No new safety signals | patients with a relapse after 12 months [1, 8]: 1 | patients with relapses after 6 months [1, 8]: 3 | BOR rate ([1]; patients MYC(+) but non-DH/TH lymphoma): 48% | patients maintaining longer than a 6 month response ([1]; patients identified as MYC positive by IHC): less than 75% | responders at month 6 ([1]; patients with <3% tumor-infiltrating CD3+ T cells in baseline tumors, 2/16): 13% | median OS [1, 9]: 21 months | median PFS [1, 9]: 4.2 months | responders at month 6 ([1]; patients with >3% tumor infiltrating CD3+ T cells, 23/36): 64% | patients with complete response (CR) with OS benefit ≥20 months ([1]; patients with CR): 80% | median OS ([1]; patients with CR (n=37) or PR (n=7) at M3): not reached | PFS and OS compared with other patients ([1]; patients with DH/TH lymphoma): shorter progression free survival (PFS) and overall survival (OS) | response rate at M3 ([1]; patients with DH/TH lymphoma): 20% | relapse frequency ([1]; patients with DH/TH lymphomas and high MYC expression, at 3 months and 6 months): appeared to relapse more frequently | response rate at M3 ([1]; patients with MYC(+) but non-DH/TH lymphoma): 36% | median OS [1, 10]: 21 months | median PFS [1, 10]: 4.2 months | patients who were non-responders at Month 6 ([1]; the 12 patients with >20% LAG3+CD3+ cells out of tumor infiltrating CD3+ T cells): 12

4-(4-{[2-(4-chlorophenyl)-4,4-dimethylcyclohex-1-en-1-yl]methyl}piperazin-1-yl)-N-(3-nitro-4-{[(oxan-4-yl)methyl]amino}benzenesulfonyl)-2-{1H-pyrrolo[2,3162yridinedin-5-yloxy}benzamide [venetoclax]
tumor growth (tumor volume by caliper) [2]: slowed tumor growth
